What all share (assay type): physicochemical
The nature of series [1]: Solid solubility test (2 h and 24 h). The conditions noted are these: for Solubility measured at 2 h: 37° C., based on free base; for XRPD measured at 2 h: state of sample / solid fraction. As for the experimental part: samples were weighed for each amorphous salt solid (equivalent to 20 mg of free base), and 10 mL of the following solvents were respectively added: 0.1N HCl solution (pH 1.0), 50 mM phosphate buffer (pH 4.5), FeSSIF-V1 (pH 5.0), FaSSIF-V1 (pH 6.5) and SGF (pH 2.0), […] The suspension was then centrifuged at 37° C., the supernatant was measured for solubility by HPLC, and the solid fraction was measured for XRPD. The target solubility was at least 2 mg (based on free base)/mL.

Series [2] can be described thus: Solid storage stability test. The conditions noted are these: for Original morphology / Original purity: original solid before storage; for chemical and physical stability after storage (summary): solid/25° C./60% RH/open/1 week and/or solid/60° C./closed container/1 week. As to the method:
Each amorphous salt solid was weighed (two 2 mg samples were weighed for purity testing after solid storage stability study, and one 10 mg sample was weighed for XRPD testing after solid storage stability study) and placed in a glass vial. In a 25° C./60% RH solid storage stability test, the amorphous salt solid was placed in a 25° C./60% RH constant temperature and humidity chamber, and placed in the dark for 1 week (i.e. “solid/25° C./60% RH/open/1 week”), and in a 60° C. solid storage stability test, the amorphous salt solid was sealed in an oven at 60° C. and heated for 1 week in the dark (i.e. “solid/60° C./closed container/l week”). Then the sample was taken out for purity testing, crystal form detection and appearance observation, respectively.

The nature of series [3]: Chemical and physical stability of the salts at the end of the preparation. From the text: It is crucial for drug development whether the salts obtained as above have chemical and physical stability at the end of the preparation. The chemical and physical stability of the salts at the end of the preparation includes: […]
Setting [4] is: FaSSIF-V1 (pH 6.5) (Test ES4, partly printed ES1).
The mark [5] stands for this setting: Test ES1: 0.1N HCl solution (pH 1.0).
[6] abbreviates: Test ES2: 50 mM phosphate buffer (pH 4.5).
Where [7] appears, read: Test BS1: solid/25° C./60% RH/open/1 week.
Where [8] appears, read: listed as amorphous 1 eq. esylate salt.
The mark [9] stands for this setting: solid/60° C./closed container/1 week (Test BS1).
Setting [10] is: listed as 1 eq. hydrobromide salt.
[11] abbreviates: listed as crystalline 1 eq. hydrobromide salt.

In brackets after ≈: the same amount, converted by molar mass. Where a name gives a salt, the structure may show the parent alone. Read-outs that look alike come from different tables or passages of the source.

Regarding `C=CC(=O)Nc1cc(Nc2ncnc(-c3cn(C)c4ccccc34)n2)c(OC)cc1N(C)CCN(C)C` [Example 8], the “pH measured at 2 h” value in series [1] (setting [4]) is recorded as “(6.4)”; in series [1] (setting [5]) it was “(0.8)”; in series [1] (setting [6]), “(4.4)”; in series [1] (Test ES3: FeSSIF-V1 (pH 5.0)) it was “(4.8)”; in series [1] (Test ES5: SGF (pH 2.0)), “(1.9)”. Moreover, the “Solubility measured at 2 h” value in series [1] (setting [4]), in series [1] (setting [5]), in series [1] (setting [6]), in series [1] (Test ES3: FeSSIF-V1 (pH 5.0)) and in series [1] (Test ES5: SGF (pH 2.0)) was over 2000 µg/mL throughout. Besides, the “XRPD measured at 2 h” value in series [1] (setting [4]), in series [1] (setting [5]), in series [1] (setting [6]), in series [1] (Test ES3: FeSSIF-V1 (pH 5.0)) and in series [1] (Test ES5: SGF (pH 2.0)) was “clear solution” throughout. Further, the Purity in series [2] (setting [7]) was 99.9%; in series [2] (setting [9]) it was 99.8%. The Original morphology result in series [2] is on record as “amorphous”. Further, the Original purity in series [2] turned out to be 99.8%. Besides, the “chemical and physical stability after storage (summary)” value in series [2] (listed as 1 eq. esylate salt) and in series [2] (setting [8]) was “physically unstable” each time. The “physical and chemical stability under storage (in words)” value in series [2] (solid/25° C./60% RH/open/1 week, listed as amorphous 1 eq. esylate salt) is “significant hygroscopicity (caking and fusion to a glassy state)”; in series [2] (solid/60° C./closed container/1 week, listed as amorphous 1 eq. esylate salt) it was “good physical and chemical stability”. The “chemical and physical stability at the end of the preparation” value is “chemically and physically stable” in series [3] (listed as 1 eq. esylate salt); “chemically and physically stable” in series [3] (setting [8]).

For the molecule `C=CC(=O)Nc1cc(Nc2ncnc(-c3cn(C)c4ccccc34)n2)c(OC)cc1N(C)CCN(C)C` [Example 13], the “chemical and physical stability at the end of the preparation” value is “physically unstable” in series [3] (listed as 2 eq. p-tosylate salt); “chemically stable and reasonable in terms of the base:acid stoichiometric ratio at the end of the preparation, but was physically unstable due to caking and fusion to a glassy state upon short exposure to environmental conditions” in series [3] (listed as amorphous 2 eq. p-tosylate salt).

Consider `C=CC(=O)Nc1cc(Nc2ncnc(-c3cn(C)c4ccccc34)n2)c(OC)cc1N(C)CCN(C)C` [Example 10], for which the “pH measured at 2 h” value is recorded as “(6.4)” in series [1] (setting [4]); “(0.8)” in series [1] (setting [5]); “(4.4)” in series [1] (setting [6]); “(4.8)” in series [1] (Test ES3: FeSSIF-V1 (pH 5.0)); “(1.9)” in series [1] (Test ES5: SGF (pH 2.0)). Besides, the “Solubility measured at 2 h” value in series [1] (setting [4]) was 700 µg/mL (≈ 1.4 mM); in series [1] (setting [5]), over 2000 µg/mL; in series [1] (setting [6]), over 2000 µg/mL; in series [1] (Test ES3: FeSSIF-V1 (pH 5.0)), over 2000 µg/mL; in series [1] (Test ES5: SGF (pH 2.0)), over 2000 µg/mL. The “XRPD measured at 2 h” value in series [1] (setting [5]), in series [1] (setting [6]), in series [1] (Test ES3: FeSSIF-V1 (pH 5.0)) and in series [1] (Test ES5: SGF (pH 2.0)) was “clear solution” each time. Besides, the Purity in series [2] (setting [7]) and in series [2] (setting [9]) was 99.9% in each case. For the same molecule, in series [2], the Original morphology result is listed as “crystalline”. The molecule further gave an Original purity in series [2] of 99.9%. The “chemical and physical stability after storage (summary)” value is “chemically and physically stable” in series [2] (setting [10]); “chemically and physically stable” in series [2] (setting [11]). For the same molecule, the “physical and chemical stability under storage (in words)” value in series [2] (solid/25° C./60% RH/open/1 week, listed as crystalline 1 eq. hydrobromide salt) is “good physical and chemical stability”; in series [2] (solid/60° C./closed container/1 week, listed as crystalline 1 eq. hydrobromide salt), “good physical and chemical stability”. Further, the “chemical and physical stability at the end of the preparation” value in series [3] (setting [10]) was “chemically and physically stable”; in series [3] (setting [11]), “chemically and physically stable”.

Regarding `C=CC(=O)Nc1cc(Nc2ncnc(-c3cn(C)c4ccccc34)n2)c(OC)cc1N(C)CCN(C)C` [Example 11], the “chemical and physical stability at the end of the preparation” value is “at least chemically unstable” in series [3] (listed as amorphous nitrate salt) and “chemically unstable” in series [3] (listed as nitrate salt).

With `C=CC(=O)Nc1cc(Nc2ncnc(-c3cn(C)c4ccccc34)n2)c(OC)cc1N(C)CCN(C)C` [sulfosalicylate salt], the “chemical and physical stability at the end of the preparation” value in series [3] is “chemically and physically stable”; in series [3] (listed as amorphous sulfosalicylate salt), “chemically and physically stable”.

On to `C=CC(=O)Nc1cc(Nc2ncnc(-c3cn(C)c4ccccc34)n2)c(OC)cc1N(C)CCN(C)C` [Example 18], for which the “chemical and physical stability at the end of the preparation” value is reported as “chemically unstable” in series [3] (listed as 1 eq. L-tartrate), “chemically unstable” in series [3] (listed as amorphous 1 eq. L-tartrate) and “at least chemically unstable” in series [3] (listed as amorphous 1 eq. L-tartrate salt).

As for `C=CC(=O)Nc1cc(Nc2ncnc(-c3cn(C)c4ccccc34)n2)c(OC)cc1N(C)CCN(C)C` [Example 16], the “chemical and physical stability at the end of the preparation” value in series [3] (listed as L-malate salt) was “chemically unstable”; in series [3] (listed as amorphous L-malate salt), “at least chemically unstable”.

Regarding `C=CC(=O)Nc1cc(Nc2ncnc(-c3cn(C)c4ccccc34)n2)c(OC)cc1N(C)CCN(C)C` [Example 14], in series [3] (listed as Y11526-25-FD13-1,4-dioxane), the “chemical and physical stability at the end of the preparation” value is “chemically and physically stable”.

Turning to `C=CC(=O)Nc1cc(Nc2ncnc(-c3cn(C)c4ccccc34)n2)c(OC)cc1N(C)CCN(C)C` [Example 15], in series [3] (listed as Y11526-25-FD12-1,4-dioxane), the “chemical and physical stability at the end of the preparation” value was “chemically and physically stable”.

With `C=CC(=O)Nc1cc(Nc2ncnc(-c3cn(C)c4ccccc34)n2)c(OC)cc1N(C)CCN(C)C` [Example 17], the “chemical and physical stability at the end of the preparation” value in series [3] (listed as 1 eq. citrate salt) is “chemically unstable”; in series [3] (listed as amorphous 1 eq. citrate salt) it was “at least chemically unstable”.

`C=CC(=O)Nc1cc(Nc2ncnc(-c3cn(C)c4ccccc34)n2)c(OC)cc1N(C)CCN(C)C` [Example 12]: the “chemical and physical stability at the end of the preparation” value is on record as “chemically stable at the end of the preparation, but was physically unstable due to a certain hygroscopicity” in series [3] (listed as amorphous sulfate salt) and “physically unstable” in series [3] (listed as sulfate salt).

Source of the values: patent publication US20230234941A1, “Salts of Compound and Pharmaceutical Compositions Containing the Same” (Shenzhen Forward Pharmaceuticals Co., Limited., priority 2020, published 2023).
